For experiment [1], the target named is T1, Polyunsaturated fatty acid 5-lipoxygenase (Rattus norvegicus, UniProt P12527).
T1 sequence (P12527 whole entry): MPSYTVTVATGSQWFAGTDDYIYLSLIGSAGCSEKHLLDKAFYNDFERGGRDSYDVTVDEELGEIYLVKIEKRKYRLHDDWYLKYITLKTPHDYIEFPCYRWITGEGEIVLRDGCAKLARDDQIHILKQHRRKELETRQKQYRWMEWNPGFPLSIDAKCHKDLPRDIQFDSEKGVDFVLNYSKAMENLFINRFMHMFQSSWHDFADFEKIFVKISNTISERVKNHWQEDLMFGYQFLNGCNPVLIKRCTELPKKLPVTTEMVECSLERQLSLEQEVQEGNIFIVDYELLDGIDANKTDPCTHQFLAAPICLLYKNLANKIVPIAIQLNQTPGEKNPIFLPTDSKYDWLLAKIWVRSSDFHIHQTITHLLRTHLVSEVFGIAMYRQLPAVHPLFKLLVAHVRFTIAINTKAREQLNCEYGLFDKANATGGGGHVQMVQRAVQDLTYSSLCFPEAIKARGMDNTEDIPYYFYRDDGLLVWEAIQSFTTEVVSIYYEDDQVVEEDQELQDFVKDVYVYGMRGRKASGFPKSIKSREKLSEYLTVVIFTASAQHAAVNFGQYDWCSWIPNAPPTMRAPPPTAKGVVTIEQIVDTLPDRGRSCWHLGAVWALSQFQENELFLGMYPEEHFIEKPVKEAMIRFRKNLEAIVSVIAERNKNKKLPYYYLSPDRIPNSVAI
The experiment in a line: Inhibition of 5-LOX in Sprague-Dawley rat leukocytes preincubated for 30 mins followed by calcium ionophore A23187 addition and measured after 20 mins by EIA. The class given is cell-based, Leucocyte.

Experiment [2] has as its target T2, Prostaglandin G/H synthase 2 (Rattus norvegicus, UniProt P35355).
T2 sequence (P35355 whole entry): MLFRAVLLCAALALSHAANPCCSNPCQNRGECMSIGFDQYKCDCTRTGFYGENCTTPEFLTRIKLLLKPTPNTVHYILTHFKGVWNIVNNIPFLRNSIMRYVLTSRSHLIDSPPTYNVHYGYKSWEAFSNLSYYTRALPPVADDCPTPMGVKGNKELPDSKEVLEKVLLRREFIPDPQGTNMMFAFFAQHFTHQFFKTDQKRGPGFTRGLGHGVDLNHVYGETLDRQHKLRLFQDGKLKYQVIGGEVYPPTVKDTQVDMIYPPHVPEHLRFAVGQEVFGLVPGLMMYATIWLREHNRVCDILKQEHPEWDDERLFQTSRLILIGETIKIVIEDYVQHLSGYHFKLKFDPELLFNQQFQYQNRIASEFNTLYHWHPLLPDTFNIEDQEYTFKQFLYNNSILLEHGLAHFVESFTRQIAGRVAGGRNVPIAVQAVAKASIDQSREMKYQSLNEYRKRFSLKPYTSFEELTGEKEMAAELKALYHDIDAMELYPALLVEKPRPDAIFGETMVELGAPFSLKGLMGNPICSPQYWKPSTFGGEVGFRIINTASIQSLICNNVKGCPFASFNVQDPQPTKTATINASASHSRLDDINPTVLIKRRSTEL
The experiment can be described thus: Inhibition of COX2 in rat macrophages using arachidonic acid as substrate preincubated with compound for 30 mins followed by substrate addition and measured after 20 mins by EIA. The class given is cell-based, Macrophage.

Experiment [3] can be described thus: Selectivity index, ratio of IC50 for inhibition of COX2 in rat macrophages to IC50 for inhibition of COX1 in calf endotheliocyte.

pIC50: −log10 of the molar value.

Usually pIC50 stands for −log10 of the IC50, conventionally taken in molar units. On to `CS(=O)(=O)c1ccc(-c2nc(SCCN(O)C(N)=O)nn2-c2ccc(Br)cc2)cc1`, for which the values for the pIC50 in experiment [1] and in experiment [2] were 6.07 and 6.82, respectively. In experiment [3], the Ratio IC50 amounted to 0.015.

The values are drawn from ChEMBL document CHEMBL5257034, “Hybrid molecules: The privileged scaffolds for various pharmaceuticals” (Eur J Med Chem, 2016).
